Test results as given in patent EP0923292B1, “IMPROVED METHOD FOR SYSTEMIC ADMINISTRATION OF 2,4-DIENOIC ACID-TYPE INSECTICIDES TO TERRESTRIAL MAMMALS” (priority 1996, dated 1998).
Read-outs that look alike come from different tables or passages of the source.

Assays:
C. felis = conditions: supplier's technical literature; cited from earlier work
C. Felis fleas = assay: Lufenuron systemic flea ovicidal activity upon oral administration to host dogs (Example 5); format: in vivo, C. felis (host: dogs); conditions: oral single doses of 10 mg/kg at Day 0 and Day 28
Experimental: Flea eggs were collected on Days -7, 0, 1, 2, 4, 7, and weekly thereafter through Day 63. Prior to egg collection, the cages in which the dogs were housed and the collection trays were rinsed with isopropyl alcohol, and the water was turned off, feed bowls and resting pads were removed from each cage. Trays covered with a screen made of […] hardware cloth were placed under the cages, and heavy white butcher paper was placed under the hardware cloth. After an interval of 14-16 hours, the paper was swept and the debris and flea eggs thus collected were transferred to a metal pan. The debris was separated from the eggs by sieving, and the eggs were placed in half-pint plastic cartons, then transferred to 10 cm x 10 cm glass plates. Using a dissecting microscope and a fine tipped artist brush, 100 flea eggs were counted from the sweepings of each dog and separated into four replicates of 25 eggs each. The eggs were placed in a 15 mm x 60 mm disposable plastic petri dish and incubated at 79-80°F and 80% relative humidity. Seventy two hours after collection, larvae emergence was determined. Both dead and live larvae were counted to determine the ovicidal effect of the treatment.
Six random bred and purebred, clinically healthy dogs, three male and three female, ranging in weight from 5.5 kg to 17.2 kg each and in age from 5 months to 42 months, and having hair coats ranging from medium to coarse and from 1.0 to 5.0 cm in length, were used. The dogs were divided into two treatment groups of three dogs each. The dogs were all maintained on regular feeding schedules of dog food and water, and each dog in one of the two groups was administered an appropriate number of lufenuron-containing gelatin capsules to achieve a dosage of 10 mg/kg of the body weight of the dog. This dosage is identified in the supplier's technical literature as the minimum effective dosage for C. felis in dogs, and the dosage that will result in a blood concentration level of 0.05 ppm remaining for at least 14 days after the administration of a single dose. Administration was performed at Day 0 and again at Day 28.
On Days -8 (eight days before the lufenuron administration), -4, 3, 10, 17, 24, 31, 38, 45, 52, and 59, approximately 100 unfed adult C. Felis fleas were applied to each dog by standard procedures. Flea eggs were collected and larval emergence (egg hatching) was determined by the procedures of Example 2 on Days -4, 0, 1, 2, 4, 7, 14, 21, 28, 35, 42, 49, and 56.

adult cat fleas = assay: Flea ovicidal activity in vitro: artificial feeding system with treated beef blood (Examples 4 and 6); design: species or system C. felis; conditions: Ctenocephalides felis, read-out: Percent Inhibition of Flea Egg Hatching; for inhibition at 0.5 ppm: 0.5 ppm in beef blood; for inhibition at 5 ppm: 5.0 ppm in beef blood; for inhibition at 0.05 ppm: 0.05 ppm in beef blood
Description: For the in vitro tests, an artificial feeding system with cages for adult cat fleas C. felis was used as described by Wade, S.E., et al., J. Med. Ent. 25(3): 186-190 (May 1988). Inside each cage were placed 100 one-week-old, unfed adult C. fells. Each cage included a container for treated blood separated from the fleas by a PARAFILM® membrane, and a compartment containing thin strips of paper to support loosely arranged clean dog hair and to provide a foothold for the fleas as they fed on the blood through the membrane.
The artificial feeding system and cages for adult cat fleas described in Example 3 were used. Beef blood was used for the feeding system, and was prepared by adding 35 mL of a 20% sodium citrate solution per liter of blood to prevent clotting. A stock solution of lufenuron was prepared by adding 50.1 mg of technical lufenuron to 4.951 g of dimethyl sulfoxide (DMSO) to yield a 1.0% solution. A 1,000 ppm solution was then prepared by diluting 1.0 mL of the 1.0% solution in 9.0 mL of DMSO, and a 100 ppm solution was prepared by diluting 1.0 mL of the 1,000 ppm solution in 9.0 mL of DMSO. Dimethyl sulfoxide itself was used as a control. To treat the blood, the various solutions (0.05 mL) were added to the citrated beef blood (100.0 mL) to yield beef blood solutions containing 5.0 ppm, 0.5 ppm, 0.05 ppm, and 0.00 (zero) ppm lufenuron. Each solution was mixed thoroughly, and 10 mL at each concentration were placed in each of five feeders in the artificial feeding system to serve as replicates. Each day fresh blood solutions identical to the originals were placed in the feeders.
Flea eggs were collected from each replicate on days 3, 5 and 7. One hundred (100) healthy appearing […] were counted under a dissecting microscope from each replicate, divided into two subsamples per replicate, and placed in 60 mm x 15 mm plastic petri dishes. The samples were incubated at 78°F and 85% relative humidity for three days, then scored for larval hatch using by visual observation through the dissecting microscope. The data from all replicates at each concentration were combined to yield the mean percent egg hatch, and the percent inhibition of egg hatch was calculated relative to the control.
Retuming to (S)-methoprene, this example presents in vitro flea ovicidal activity using beef blood, for comparison with Example 4. Procedures using beef blood were the same as those indicated in the previous examples.

[1] = remaining for at least 14 days after the administration of a single dose of 10 mg/kg; supplier's technical literature; cited from earlier work

O=C(NC(=O)c1c(F)cccc1F)Nc1cc(Cl)c(OC(F)(F)C(F)C(F)(F)F)cc1Cl (stereo not drawn) [Lufenuron]
minimum effective dosage for C. felis in dogs (C. felis): 10 mg/kg | Percent Inhibition of Flea Egg Hatching (C. Felis fleas; Day 1): 39.9% | Percent Inhibition of Flea Egg Hatching (C. Felis fleas; Day 2): 70.6% | Percent Inhibition of Flea Egg Hatching (C. Felis fleas; Day 4): 54.5% | Percent Inhibition of Flea Egg Hatching (C. Felis fleas; Day 7): 54.1% | Percent Inhibition of Flea Egg Hatching (C. Felis fleas; Day 14): 52.1% | Percent Inhibition of Flea Egg Hatching (C. Felis fleas; Day 21): 10.7% | Percent Inhibition of Flea Egg Hatching (C. Felis fleas; Day 28): 0% | Percent Inhibition of Flea Egg Hatching (C. Felis fleas; Day 35): 48.6% | Percent Inhibition of Flea Egg Hatching (C. Felis fleas; Day 42): 0% | Percent Inhibition of Flea Egg Hatching (C. Felis fleas; Day 49): 72.7% | Percent Inhibition of Flea Egg Hatching (C. Felis fleas; Day 56): 20.5% | inhibition at 0.5 ppm (adult cat fleas; 72 h, day 3, low number of eggs produced in both controls and treated groups): 80.6% | inhibition at 5 ppm (adult cat fleas; 72 h, day 3): 100% | inhibition at 0.05 ppm (adult cat fleas; 120 h, day 5): 10.8% | inhibition at 0.5 ppm (adult cat fleas; 120 h, day 5): 56.5% | inhibition at 5 ppm (adult cat fleas; 120 h, day 5): 99.8% | inhibition at 0.05 ppm (adult cat fleas; 168 h, day 7): 6.9% | inhibition at 0.5 ppm (adult cat fleas; 168 h, day 7): 63.2% | inhibition at 5 ppm (adult cat fleas; 168 h, day 7): 100% | blood concentration level [1]: 0.05 ppm
